Results reported in patent publication US20070281992A1, “COMBINATION OF GYRASE B INHIBITORS AND PROTEIN SYNTHESIS INHIBITORS AND USES THEREOF” (priority 2006, published 2007).
Like-named read-outs stand apart in the source and are kept apart here.

Legend:
Format in all cases: cell-based
[1] = test system: Methicillin-Susceptible Staphylococcus aureus Isolates; assay: MIC assay (NCCLS broth dilution), MSSA clinical isolates; conditions: for MIC: read-out: Minimal Inhibitory Concentration
How it was run: (§1)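 Staphylococcal isolates and QC strains (S. aureus ATCC 29213, E. faecalis ATCC 29212) tested by NCCLS broth dilution in Mueller Hinton II broth. Agents run as 11 two-fold serial dilutions, with novobiocin combined with tetracycline or minocycline at 2.5:1. Vancomycin was the control.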

[2] = test system: Vancomycin-intermediate Staphylococcus aureus Isolates; assay: MIC assay (NCCLS broth dilution), VISA isolates; conditions: for MIC: read-out: Minimal Inhibitory Concentration
How it was run: as §1

[3] = test system: Unconfirmed Vancomycin-intermediate Staphylococcus aureus Isolates; assay: MIC assay (NCCLS broth dilution), unconfirmed VISA isolates; conditions: for MIC: read-out: Minimal Inhibitory Concentration
How it was run: as §1

[4] = test system: Vancomycin-intermediate Staphylococcus epidermidis Isolates; assay: MIC assay (NCCLS broth dilution), VISE isolates; conditions: for MIC: read-out: Minimal Inhibitory Concentration
How it was run: as §1

[5] = test system: Unconfirmed Vancomycin-intermediate Staphylococcus epidermidis Isolates; assay: MIC assay (NCCLS broth dilution), unconfirmed VISE isolates; conditions: for MIC: read-out: Minimal Inhibitory Concentration
How it was run: as §1

[6] = test system: Linezolid-Resistant Staphylococcus aureus Isolates; assay: MIC assay (NCCLS broth dilution), LRSA isolates; conditions: for MIC: read-out: Minimal Inhibitory Concentration
How it was run: as §1

[7] = test system: Enterococcus faecalis (ATCC 29212); assay: MIC assay, quality control strain E. faecalis ATCC 29212; conditions: ATCC29212, E. faecalis ATCC 29212, repeat runs 22FEB06-09MAR06, combinations at 2.5:1, read-out: Minimal Inhibitory Concentration, quality control
How it was run: as §1

[8] = Staphylococcus aureus, 52 MSSA isolates, combinations at 2.5:1, given as NB/partner

MIC Range ([1]; 52 MSSA isolates, Mueller Hinton II Broth, combinations at 2.5:1, given as NB/partner): .06 to .12 mg/L
MIC ([1]; Staphylococcus aureus, MSSA isolate 133, 03MAR06): 0.06 mg/L
MIC ([1]; Staphylococcus aureus, MSSA isolate 134, 03MAR06): 0.06 mg/L
MIC ([1]; Staphylococcus aureus, MSSA isolate 135, 03MAR06): 0.06 mg/L
MIC ([1]; Staphylococcus aureus, MSSA isolate 753, 22FEB06): 0.12 mg/L
MIC ([1]; Staphylococcus aureus, MSSA isolate 754, 22FEB06): 0.12 mg/L
MIC ([1]; Staphylococcus aureus, MSSA isolate 754, 24FEB06): 0.12 mg/L
MIC ([1]; Staphylococcus aureus, MSSA isolate 755, 22FEB06): 0.12 mg/L
MIC ([1]; Staphylococcus aureus, MSSA isolate 756, 03MAR06): 0.06 mg/L
MIC ([1]; Staphylococcus aureus, MSSA isolate 779, 22FEB06): 0.12 mg/L
MIC ([1]; Staphylococcus aureus, MSSA isolate 780, 03MAR06): 0.12 mg/L
MIC ([1]; Staphylococcus aureus, MSSA isolate 781, 03MAR06): 0.06 mg/L
MIC ([1]; Staphylococcus aureus, MSSA isolate 782, 22FEB06): 0.12 mg/L
MIC ([1]; Staphylococcus aureus, MSSA isolate 783, 22FEB06): 0.12 mg/L
MIC ([1]; Staphylococcus aureus, MSSA isolate 784, 22FEB06): 0.12 mg/L
MIC ([1]; Staphylococcus aureus, MSSA isolate 785, 22FEB06): 0.12 mg/L
MIC ([1]; Staphylococcus aureus, MSSA isolate 786, 22FEB06): 0.12 mg/L
MIC ([1]; Staphylococcus aureus, MSSA isolate 787, 22FEB06): 0.12 mg/L
MIC ([1]; Staphylococcus aureus, MSSA isolate 788, 22FEB06): 0.12 mg/L
MIC ([1]; Staphylococcus aureus, MSSA isolate 789, 24FEB06): 0.12 mg/L
MIC ([1]; Staphylococcus aureus, MSSA isolate 790, 24FEB06): 0.12 mg/L
MIC ([1]; Staphylococcus aureus, MSSA isolate 791, 24FEB06): 0.12 mg/L
MIC ([1]; Staphylococcus aureus, MSSA isolate 792, 03MAR06): 0.06 mg/L
MIC ([1]; Staphylococcus aureus, MSSA isolate 793, 24FEB06): 0.12 mg/L
MIC ([1]; Staphylococcus aureus, MSSA isolate 794, 24FEB06): 0.12 mg/L
MIC ([1]; Staphylococcus aureus, MSSA isolate 994, 22FEB06): 0.12 mg/L
MIC ([1]; Staphylococcus aureus, MSSA isolate 995, 03MAR06): 0.12 mg/L
MIC ([1]; Staphylococcus aureus, MSSA isolate 996, 22FEB06): 0.06 mg/L
MIC ([1]; Staphylococcus aureus, MSSA isolate 997, 22FEB06): 0.12 mg/L
MIC ([1]; Staphylococcus aureus, MSSA isolate 998, 03MAR06): 0.06 mg/L
MIC ([1]; Staphylococcus aureus, MSSA isolate 999, 22FEB06): 0.12 mg/L
MIC ([1]; Staphylococcus aureus, MSSA isolate 1000, 24FEB06): 0.12 mg/L
MIC ([1]; Staphylococcus aureus, MSSA isolate 1001, 24FEB06): 0.12 mg/L
MIC ([1]; Staphylococcus aureus, MSSA isolate 1002, 24FEB06): 0.12 mg/L
MIC ([1]; Staphylococcus aureus, MSSA isolate 1003, 03MAR06): 0.06 mg/L
MIC ([1]; Staphylococcus aureus, MSSA isolate 1005, 24FEB06): 0.06 mg/L
MIC ([1]; Staphylococcus aureus, MSSA isolate 1006, 24FEB06): 0.12 mg/L
MIC ([1]; Staphylococcus aureus, MSSA isolate 1007, 24FEB06): 0.12 mg/L
MIC ([1]; Staphylococcus aureus, MSSA isolate 1008, 24FEB06): 0.06 mg/L
MIC ([1]; Staphylococcus aureus, MSSA isolate 1009, 24FEB06): 0.12 mg/L
MIC ([1]; Staphylococcus aureus, MSSA isolate 1131, 24FEB06): 0.06 mg/L
MIC ([1]; Staphylococcus aureus, MSSA isolate 1132, 03MAR06): 0.06 mg/L
MIC ([1]; Staphylococcus aureus, MSSA isolate 1133, 24FEB06): 0.12 mg/L
MIC ([1]; Staphylococcus aureus, MSSA isolate 1134, 24FEB06): 0.12 mg/L
MIC ([1]; Staphylococcus aureus, MSSA isolate 1654, 03MAR06): 0.12 mg/L
MIC ([1]; Staphylococcus aureus, MSSA isolate 1656, 03MAR06): 0.06 mg/L
MIC ([1]; Staphylococcus aureus, MSSA isolate 1662, 03MAR06): 0.06 mg/L
MIC ([1]; Staphylococcus aureus, MSSA isolate 1663, 03MAR06): 0.12 mg/L
MIC ([1]; Staphylococcus aureus, MSSA isolate 1666, 03MAR06): 0.06 mg/L
MIC ([1]; Staphylococcus aureus, MSSA isolate 1667, 03MAR06): 0.12 mg/L
MIC ([1]; Staphylococcus aureus, MSSA isolate 1668, 03MAR06): 0.06 mg/L
MIC ([1]; Staphylococcus aureus, MSSA isolate 1671, 03MAR06): 0.06 mg/L
MIC ([1]; Staphylococcus aureus, MSSA isolate 1728, 03MAR06): 0.06 mg/L
MIC ([1]; Staphylococcus aureus, MSSA isolate 1728, retest 09MAR06): 0.06 mg/L
MIC50 [1, 8]: 0.12 mg/L
MIC90 [1, 8]: 0.12 mg/L
MIC Range ([2]; 2 VISA isolates, combinations at 2.5:1, given as NB/partner): .06 to 25 mg/L
MIC ([2]; Staphylococcus aureus, VISA isolate 2012, 03MAR06): 0.25 mg/L
MIC ([2]; Staphylococcus aureus, VISA isolate 2018, 03MAR06): 0.06 mg/L
MIC50 ([2]; Staphylococcus aureus, 2 VISA isolates, combinations at 2.5:1, given as NB/partner): 0.06 mg/L
MIC Range ([3]; 6 unconfirmed VISA isolates (vancomycin MIC 4 ug/ml), combinations at 2.5:1): ≦.015-2 μg/ml
MIC ([3]; Staphylococcus aureus, Unconfirmed VISA isolate 2013, 03MAR06): 0.12 mg/L
MIC ([3]; Staphylococcus aureus, Unconfirmed VISA isolate 2014, 03MAR06): 2 mg/L
MIC ([3]; Staphylococcus aureus, Unconfirmed VISA isolate 2015, 03MAR06): < 0.015 mg/L
MIC ([3]; Staphylococcus aureus, Unconfirmed VISA isolate 2016, 03MAR06): 0.06 mg/L
MIC ([3]; Staphylococcus aureus, Unconfirmed VISA isolate 2017, 03MAR06): 0.03 mg/L
MIC ([3]; Staphylococcus aureus, Unconfirmed VISA isolate 2019, 03MAR06): 2 mg/L
MIC50 ([3]; Staphylococcus aureus, 6 unconfirmed VISA isolates (vancomycin MIC 4 ug/ml), combinations at 2.5:1): 0.06 mg/L
MIC Range ([4]; 4 VISE isolates, combinations at 2.5:1): .06 to .25 mg/L
MIC ([4]; Staphylococcus epidermidis, VISE isolate 2020, 09MAR06): 0.12 mg/L
MIC ([4]; Staphylococcus epidermidis, VISE isolate 2021, 09MAR06): 0.06 mg/L
MIC ([4]; Staphylococcus epidermidis, VISE isolate 2022, 03MAR06): 0.25 mg/L
MIC ([4]; Staphylococcus epidermidis, VISE isolate 2023, 03MAR06): 0.06 mg/L
MIC50 ([4]; Staphylococcus epidermidis, 4 VISE isolates, combinations at 2.5:1): 0.06 mg/L
MIC Range ([5]; 3 unconfirmed VISE isolates, combinations at 2.5:1): 0.12 to 0.25 mg/L
MIC ([5]; Staphylococcus epidermidis, Unconfirmed VISE isolate 2024, 09MAR06): 0.25 mg/L
MIC ([5]; Staphylococcus epidermidis, Unconfirmed VISE isolate 2025, 09MAR06): 0.12 mg/L
MIC ([5]; Staphylococcus epidermidis, Unconfirmed VISE isolate 2026, 03MAR06): 0.25 mg/L
MIC50 ([5]; Staphylococcus epidermidis, 3 unconfirmed VISE isolates, combinations at 2.5:1): 0.25 mg/L
MIC Range ([6]; 3 LRSA isolates, combinations at 2.5:1): 0.12 to 2 mg/L
MIC ([6]; Staphylococcus aureus, LRSA isolate 1651, 24FEB06): 0.12 mg/L
MIC ([6]; Staphylococcus aureus, LRSA isolate 1652, 24FEB06): 0.12 mg/L
MIC ([6]; Staphylococcus aureus, LRSA isolate 1725, 24FEB06): 2 mg/L
MIC50 ([6]; Staphylococcus aureus, 3 LRSA isolates, combinations at 2.5:1): 0.12 mg/L
MIC [7]: 2 mg/L
SMILES: CN(C)c1ccc(O)c2c1C[C@H]1C[C@H]3[C@H](N(C)C)C(O)=C(C(N)=O)C(=O)[C@@]3(O)C(O)=C1C2=O [MI, minocycline]
